According to patent publication US20120064008A1, “COMPOSITIONS FOR THE TREATMENT OF METASTATIC CANCER AND METHODS OF USE THEREOF” (priority 2009, published 2012):
“Also recorded” adds a separate entry of the source. Where two headings read alike, the source gives them in different places.

What was measured:
lung metastases = assay: Lung metastasis model, survival; assay type: in vivo, mice
Method: In the lung metastasis model, treatment was initiated 10 days after the animals were inoculated with tumor cells. At this time, the lungs were riddled with metastases. Formulations containing a benzimidazole were injected into the peritoneum three times per week. Half of the control mice died by day 27, only 17 days after the animals started receiving treatments. In contrast, half of the mice treated with fenbendazole were still alive on day 37 and one-third were still alive at day 45.

[1] = system: DU145 human prostate cancer cells; assay: Cyquant cell viability assay, DU145; assay type: cell-based; settings: read-out: ED50 DU145
Method: (§1) The cytotoxic effects of paclitaxel, fenbendazole, and albendazole were compared in paclitaxel-resistant PC3-TR and DU145-TR prostate cancer cells with their paclitaxel-sensitive counterparts, PC3 and DU145 cells. Cells were treated for 72 hours with vehicle, paclitaxel, fenbendazole or albendazole in various doses. Cell viability was measured using Cyquant assay, and percent control was calculated by dividing the fluorescent reading from drug-treated cells with those from vehicle-treated cells, indicating percentage of cell survival.

[2] = system: PC3MLN4 human prostate cancer cells; assay: Cyquant cell viability assay, PC3MLN4; settings: for EC50: Homo sapiens, 72 h, read-out: ED50 PC3MLN4 DMSO
Method: (§2) PC3M and PC3MLN4 cells were treated with vehicle, fenbendazole in DMSO, and fenbendazole in DMSO/NMP/TWEEN®-80/CrEL in varying doses for 72 hours. Cell viability assays using Cyquant reagent (Invitrogen, C7026) were performed as described in the literature. […] cells were seeded in 96 well plates overnight, before treated with either vehicle or benzimidazole solubilized in DMSO alone or in DMSO (12.5%)/NMP ([…])/TWEEN®-80 (25%)/Cr-EL (25%) for 72 hours. Cells were harvested by removing the media, washing once with phosphate buffered saline (PBS) and freezing at −80° C. for overnight. After thawing to room temperature, Cyquant reagent were prepared and added to the wells and the fluorescence intensity were measured with a spectrometer at 485 nm. Percent control was calculated by dividing the reading from drug-treated cells with the reading from vehicle-treated cells.
(§3) ED50 values were calculated from dose-effect analysis performed with Compusyn using data from the Cyquant cell viability assays.
(§4) ED50 values were calculated from dose-effect analysis performed with Compusyn using data from the Cyquant cell viability assays. All benzimidazoles drugs were solubilized in the combination carrier.

AT6.1 lung metastases = assay: Ki-67 and caspase-3 staining of lung tumor sections; assay type: in vivo, mice; settings: 50 mg/kg, combination carrier; FIG. 10
Method: To investigate whether benzimidazoles treatment affects cell proliferation and apoptosis in vivo, immunohistochemical analysis of the cell proliferation marker, Ki-67 and of the apoptotic marker, activated caspase-3 was performed on mouse lung sections from each group.
Tumor cells in the lungs of rats treated with saline and 50 mg/kg fenbendazole (formulation in the combination carrier) were analyzed by Ki-67 and caspase-3 antibody staining. Tissues were collected and fixed in formalin before processed for paraffin embedding. Tissue sections were then processed for Ki-67 and caspase-3 antibody staining, using the protocol established at Dana Farber Cancer Institute/Harvard Cancer Center Research Pathology Core. At least five random 200× magnification images were photographed from each animal. Distinct and strong nuclear Ki67 staining of tumor cells were counted using Image J software (NIH, Bethesda, […].).

[3] = system: paclitaxel-resistant PC3-TR prostate cancer cells; assay: Cyquant cell viability assay, PC3-TR; assay type: cell-based, human; settings: Homo sapiens, read-out: ED50 PC3-TR
Method: as §1

[4] = Combination with paclitaxel, Cyquant cell growth inhibition, CompuSyn median-dose effect analysis; assay type: cell-based; settings: alone or in combination
Method: Cell growth inhibition assays were performed using Cyquant reagent as described above. Drug interactions were quantitated by median-dose effect analysis and combination index values as well as dose reduction index were derived using CompuSyn software (ComboSyn, Inc.), as described previously in the literature. CI values of <1, =1, and >1 indicate synergism, additivity and antagonism between the drugs, respectively.
All benzimidazole drugs were prepared using the combination carrier and diluted with culture medium prior to treatment.

DU145-TR cells = assay: Normalized mitotic index, DU145-TR; assay type: cell-based, human; settings: 1 μM
[5] = system: PC3 human prostate cancer cells; assay: Cyquant cell viability assay, PC3; assay type: cell-based; settings: read-out: ED50 PC3
Method: as §1

DU145 cells = assay: % apoptotic cells, DU145; assay type: cell-based, human; settings: 1 μM
[6] = system: PC3M human prostate cancer cells; assay: Cyquant cell viability assay, PC3M; assay type: cell-based; settings: for EC50: Homo sapiens, PC-3M, read-out: ED50 PC3M DMSO
Method: as §2, §3, §4

DU-145TR cells = assay: Gene expression profiling, DU-145 and DU-145TR; assay type: cell-based, human; settings: DU-145TR vs DU-145, 2-fold cut off
Description: In order to dissect the mechanisms underlying the anti-tumor effects of benzimidazoles in these cells, gene expression profiling was done comparing albendazole treated DU-145 and DU-145TR cells.

PC-3MLN4 cells [7] = assay: Normalized mitotic index (histone H3 phospho-Serine-28), PC-3MLN4; assay type: cell-based; settings: Homo sapiens, read-out: Normalized mitotic index PC-3MLN4, at 1 μM; normalized against vehicle-treated cells
Description: The mitotic index for each agent was normalized against those obtained from vehicle-treated cells, and compared with the activity of paclitaxel, a known inducer of mitotic arrest.

PC-3MLN4 cells [8] = assay: Experimental bone metastasis model, PC-3MLN4 cells expressing luciferase, intraosseous; assay type: in vivo, immunocompromised mice; settings: 100 mg/kg for two weeks
Method: (§5) Using the metastatic prostate cancer PC-3MLN4 cells that expressed luciferase, the anti-tumor effects of benzimidazoles in a model of experimental bone metastasis were investigated. Cells were inoculated directly into a single tibia of immunocompromised mice via intraosseous injection. When bone lesions were confirmed to be growing via bioluminescent imaging, mice were randomized and treated with vehicle or with 100 mg/kg albendazole for two weeks. […] There was a significant difference in average luciferase signal between the two groups over the course of treatment (P<0.05).
At the end of study, the anatomical and radiographic characteristics of the bone lesions were evaluated with X-ray and micro-computerized tomography (CT) imaging.
as §5, with “(P<0.05) (see FIG. 13).” for “(P<0.05).”
At the end of study, the anatomical and radiographical characteristics of the bone lesions were evaluated with X-ray and micro-computerized tomography (CT) imaging.

COC(=O)Nc1nc2ccc(Sc3ccccc3)cc2[nH]1 [Fenbendazole, fenbendazole]
fraction of mice still alive at day 45 (lung metastases; i.p. three times per week from day 10 after inoculation): one-third | day on which half of the mice were still alive (lung metastases; i.p. three times per week from day 10 after inoculation (half of control mice died by day 27)): 37 days | prolonging the survival times compared with taxol (lung metastases; mouse, in vivo): equivalent to taxol | EC50 ([1]; DU-145, 72 hours): 10.7 µM | cytotoxicity in the combination carrier compared to DMSO alone [2]: greater cytotoxicity | EC50 [2]: 1.93 µM | reduction in ED50, DNTC compared to DMSO, PC-3MLN4 ([2]; solubilized in DNTC vs DMSO): ~2 fold | tumor cell proliferation (Ki67 staining) compared to control (AT6.1 lung metastases): less proliferation of tumor cells; also recorded: marked reduction in tumor cell proliferation | EC50 ([3]; 72 hours, paclitaxel-resistant): 0.32 µM | EC50 ([4]; Fa 0.50, read-out: Dose FBZ): 6.21 µM | Normalized mitotic index (6 hours) DU145-TR (DU145-TR cells): 1.18 | EC50 ([5]; 72 hours): 1.57 µM | % Apoptotic cells (72 hours) DU145 (DU145 cells): 26% | EC50 ([6]; solubilized in DMSO alone, 72 hours): 5.4 µM | reduction in ED50, DNTC compared to DMSO, PC-3M ([6]; solubilized in DNTC vs DMSO): ~2 fold

CCCSc1ccc2nc(NC(=O)OC)[nH]c2c1 [Albendazole, albendazole]
expression of ER stress signaling genes (ATF-2, ATF-3, HERPUD1, CHOP, ANKRD1, GADD45alpha) (DU-145TR cells): differentially expressed | EC50 ([1]; DU-145, 72 h): 2.41 µM | EC50 [2]: 4.68 µM | cytotoxicity in the combination carrier compared to DMSO alone ([2]; PC3MLN4 cells, 72 hours): greater cytotoxicity | cytotoxicity in highly metastatic cells relative to PC-3M ([2]; PC-3MLN4 (b184 also AT6.1) relative to PC-3M): greater cytotoxicity | EC50 ([3]; 72 h): 0.8 µM | Dose ABZ ([4]; Fa 0.60): 5.249 µM | fold induction at 1 µM (PC-3MLN4 cells [7]): 1.8 to 2 | Normalized mitotic index (6 hours) DU145-TR (DU145-TR cells): 1.13 | EC50 ([5]; 72 h): 4.86 µM | % Apoptotic cells (72 hours) DU145 (DU145 cells): 27% | EC50 ([6]; 72 h): 4.84 µM | tumor growth (luciferase signal) compared to vehicle (PC-3MLN4 cells [8]): reduced tumor growth | Ki-67 labeling index of bone lesions (PC-3MLN4 cells [8]; P<0.005): reduction | apoptotic index of bone lesions (activated caspase-3 staining) (PC-3MLN4 cells [8]; P<0.005): increase | bone integrity (X-ray and micro-CT imaging) (PC-3MLN4 cells [8]; end of study): bone integrity was maintained
